In patent US20190241569A1, “3-(ARYL OR HETEROARYL) METHYLENEINDOLIN-2-ONE DERIVATIVES AS INHIBITORS OF CANCER STEM CELL PATHWAY KINASES FOR THE TREATMENT OF CANCER” (Boston Biomedical, Inc., priority 2013, published 2019):
Where two headings read alike, the source gives them in different places.

Legend:
A549 = experiment: Bulk cancer cells, Cell Titer-Glo 72 hours (Test Example 2); assay type: cell-based; conditions: Homo sapiens
Procedure: (§1) Tubes of 3× drug (60 uM in 500 uL complete media) were prepared from 5 mM stock solutions in DMSO. […] To treat cells, 50 uL of drug from the dilution plate was removed and added to the cell plates. […] Cells were harvested 72 hours after drug addition using Cell Titer-Glo (Promega) and luminescence measured on a plate reader.

FaDu = experiment: as above; assay type: cell-based; conditions: Homo sapiens
Procedure: as §1

ACHN = experiment: as above; assay type: cell-based; conditions: Homo sapiens, ACHN, 72 h
Procedure: as §1

A549 CSC = experiment: Cancer stem cells, Cell Titer-Glo 72 hours (Test Example 3); assay type: cell-based; conditions: Homo sapiens
p-AMPK Thr172 = experiment: Kinase inhibition, Western blot in HeLa cells (Test Example 5); assay type: cell-based; conditions: Homo sapiens, 6 hours, DMSO = 100, read-out: p-AMPK Relative Intensity (%)
Procedure: (§2) HeLa cells were treated with 5 uM of the indicated compound for 6 hours. Following compound incubation, cells were washed twice with ice-cold PBS and lysed in lysis buffer (50 mM HEPES, pH 7.5, 1% Nonidet P40, 150 mM NaCl, 1 mM EDTA, 1× protease inhibitor cocktail (Promega)). 30 micrograms of soluble protein was separated by SDS-PAGE and transferred to PVDF membranes. Primary antibodies against p-AMPK Thr172, p-RPS6 Ser235/236, p-RPS6 Ser240/244, and Tubulin (Cell Signaling Technology) were used. The antigen-antibody complexes were visualized by enhanced chemiluminescence (BioRad). The results are shown below in Tables 17A-17E.

p-RPS6 Ser235/236 = experiment: as above; assay type: cell-based; conditions: Homo sapiens, 6 hours, DMSO = 100, read-out: p-RPS6 Ser235/236 Relative Intensity (%)
Procedure: as §2

p-RPS6 Ser240/244 = experiment: as above; assay type: cell-based; conditions: Homo sapiens, 6 hours, DMSO = 100, read-out: p-RPS6 Ser240/244 Relative Intensity (%)
Procedure: as §2

ACHN CSC = experiment: Cancer stem cells, Cell Titer-Glo 72 hours (Test Example 3); assay type: cell-based; conditions: Homo sapiens, ACHN, 72 h
FaDu CSC = experiment: as above; assay type: cell-based; conditions: Homo sapiens, FaDu, 72 h
human RIOK2 protein = target: T1, human RIOK2 protein (Homo sapiens, UniProt Q9BVS4); experiment: RIOK2 autophosphorylation ELISA (Test Example 4); assay type: biochemical
T1 construct: glutathione S-transferase is fused to N-terminal of a full-length human RIOK2 protein; GST (glutathione S-transferase) (N); purchased CarnaBio, Inc; host or cells: baculovirus-Sf21 cell expression system
Procedure: A protein in which glutathione S-transferase is fused to N-terminal of a full-length human RIOK2 protein was used as a recombinant human RIOK2 protein. The protein was prepared using a baculovirus-Sf21 cell expression system from CarnaBio, Inc. A kinase reaction solution was prepared by mixing 25 μg/mL of the recombinant human RIOK2 protein and 100 μM of ATP in 20 μl of kinase reaction buffer (50 mM Tris-HCl, 10 mM MgCl2, 10 mM MnCl2, 1 mM DTT, 0.01% Brij, 1× PhosSTOP (manufactured by Roche Applied Science)), and was incubated at a temperature of 30° C. for 1 hour. After adding 30 μl of 40 mM EDTA solution to this kinase reaction solution, the kinase reaction solution was transferred to a MaxiSorp 96 well plate (manufactured by Nunc). Thereafter, phosphorylated human RIOK2 protein was allowed to adsorb onto the wells by leaving the plate in a refrigerator overnight.
The following day, the supernatant was removed, and the wells were washed three times with ELISA buffer (20 mM Tris-HCl, 150 mM NaCl, 0.2% Tween-20, 0.1% BSA). Thereafter, 100 μl of Blocking-One P (product name; manufactured by Nacalai Tesque, Inc.) was applied to the wells, and a blocking treatment was performed for 1 hour at room temperature. […] After further washing the wells, a secondary antibody, anti-rabbit IgG conjugated with horseradish peroxidase (manufactured by Jackson ImmunoResearch; 1/4000 ELISA buffer-diluted solution), was applied to the wells, and incubation was performed for 30 minutes at room temperature. After washing the wells once again, 50 μl of tetramethyl benzidine (TMB) aqueous solution (manufactured by Nacalai Tesque, Inc.) was applied to the wells, and a coloring reaction was performed for 30 minutes at room temperature. Thereafter, the coloring reaction was stopped by adding 50 μl of 2M H2SO4 to the wells. An absorptiometric level of 450 nm was measured in each well using ARVO SX (manufactured by Wallac).

T1 sequence (Q9BVS4 whole entry, the tested form may be a part): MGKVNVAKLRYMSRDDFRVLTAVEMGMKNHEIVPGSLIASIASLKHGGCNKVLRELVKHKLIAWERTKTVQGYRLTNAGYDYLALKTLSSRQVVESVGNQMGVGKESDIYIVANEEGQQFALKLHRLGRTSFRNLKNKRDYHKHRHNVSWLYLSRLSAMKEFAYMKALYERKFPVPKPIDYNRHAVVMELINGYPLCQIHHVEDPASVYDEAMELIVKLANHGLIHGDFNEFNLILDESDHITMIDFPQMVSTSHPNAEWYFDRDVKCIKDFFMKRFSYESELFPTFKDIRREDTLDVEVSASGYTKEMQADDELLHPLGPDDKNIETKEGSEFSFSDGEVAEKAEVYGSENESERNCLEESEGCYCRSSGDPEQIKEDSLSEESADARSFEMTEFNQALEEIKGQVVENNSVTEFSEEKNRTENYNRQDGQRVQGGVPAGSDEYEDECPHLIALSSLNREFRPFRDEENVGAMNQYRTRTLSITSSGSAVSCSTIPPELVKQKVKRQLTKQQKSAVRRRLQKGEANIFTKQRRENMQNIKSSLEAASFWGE

SMILES	IC50 (A549) [nM]	IC50 (FaDu) [nM]	IC50 (ACHN) [nM]	IC50 (A549 CSC) [nM]	IC50 (ACHN CSC) [nM]	IC50 (FaDu CSC) [nM]	inhibition at 1 µM (human RIOK2 protein; read-out: Inhibitory activity at 1 μM (%)) [%]	inhibition at 10 µM (human RIOK2 protein; read-out: Inhibitory activity at 10 μM (%)) [%]	activity at 5 µM (p-AMPK Thr172; 5 uM) [%]	activity at 5 µM (p-RPS6 Ser235/236; 5 uM) [%]	activity at 5 µM (p-RPS6 Ser240/244; 5 uM) [%]	activity at 5 µM (p-AMPK Thr172; 5 uM compound, Western blot) [%]	activity at 5 µM (p-RPS6 Ser235/236; 5 uM compound, Western blot) [%]	activity at 5 µM (p-RPS6 Ser240/244; 5 uM compound, Western blot) [%]
CCN(CC)CCNC(=O)c1c(C)[nH]c(/C=C2\C(=O)Nc3ccc(-c4ccc(-c5ccccc5)o4)cc32)c1C [Example 56, (Z)-N-(2-(diethylamino)ethyl)-2,4-dimethyl-5-((2-oxo-5-(5-phenylfuran-2-yl)indolin-3-ylidene)methyl)-1H-pyrrole-3-carboxamide]	4300	3090	3660	8250	250	1410			144	19	64			
Cc1[nH]c(/C=C2\C(=O)Nc3ccc(-c4cnn(-c5ccccn5)c4)cc32)c(C)c1C(=O)NCCN1CCCC1 [Example 33]	2530	2530	1640	11700	220	1650	53	91	52	82	92			
CCN(CC)CCNC(=O)c1c(C)[nH]c(/C=C2\C(=O)Nc3cccc(-c4ccc(-c5ccccc5)cc4)c32)c1C [Example 109]	5090	1110	1600	4320	330	280			8	2	23			
CCN(CC)CCNC(=O)c1c(C)[nH]c(/C=C2\C(=O)Nc3c2cccc3-c2csc(-c3ccccc3)n2)c1C [Example 9]	1960	3750	3200	1570	280	1260			144	2	32			

More lines, main results first:

IC50 (A549) [nM]	IC50 (FaDu) [nM]	IC50 (ACHN) [nM]	IC50 (A549 CSC) [nM]	IC50 (ACHN CSC) [nM]	IC50 (FaDu CSC) [nM]	inhibition at 1 µM (human RIOK2 protein; read-out: Inhibitory activity at 1 μM (%)) [%]	inhibition at 10 µM (human RIOK2 protein; read-out: Inhibitory activity at 10 μM (%)) [%]	SMILES	activity at 5 µM (p-AMPK Thr172; 5 uM) [%]	activity at 5 µM (p-RPS6 Ser235/236; 5 uM) [%]	activity at 5 µM (p-RPS6 Ser240/244; 5 uM) [%]	activity at 5 µM (p-AMPK Thr172; 5 uM compound, Western blot) [%]	activity at 5 µM (p-RPS6 Ser235/236; 5 uM compound, Western blot) [%]	activity at 5 µM (p-RPS6 Ser240/244; 5 uM compound, Western blot) [%]
3360	6230	1680	2230	1970	2200			CCN(CC)CCNC(=O)c1c(C)[nH]c(/C=C2\C(=O)Nc3c2cccc3-c2cncc(C)c2)c1C [Example 283]				50	47	59
5320	3810	3640	6870	2710	1920			CCN(CC)CCNC(=O)c1c(C)[nH]c(/C=C2\C(=O)Nc3c2cccc3-c2cccnc2OC)c1C [Example 286]				31	48	54
